Assay: molar heat capacity at constant pressure
Settings: Liquid, metal-bellows calorimeter

F/C=C/C(F)(F)F [trans-1,3,3,3-tetrafluoropropene]
molar heat capacity at constant pressure [J/K/mol]
Settings | 310 K | 320 K | 330 K | 340 K | 350 K | 360 K | 370 K
2000 kPa | 165.36 | 168.78 | 175.62 | 188.17 | 206.42 | – | –
3000 kPa | 160.8 | 164.22 | 169.92 | 179.05 | 192.73 | 214.4 | 272.56
4000 kPa | 157.38 | 160.8 | 166.5 | 169.92 | 182.47 | 195.01 | 224.66
5000 kPa | 155.1 | 158.52 | 161.94 | 164.22 | 174.48 | 183.61 | 204.13
